US20250179061A1 (SIRONAX LTD., priority 2022, published 2025)

tested on: HT-29 cells; assay: HT-29 necroptosis cell viability assay (TNF-α/SMAC mimetic/zVAD-FMK, CellTiter-Glo); assay type: cell-based; conditions: Homo sapiens, HT-29, HT-29 necroptosis cell viability assay; class symbols for IC50; read-out: Activity
In short: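 Necroptosis was triggered by TNF-α (10 ng/ml), SMAC mimetic (6 μM) and zVAD-FMK (10 μM) in serum-free medium during 20 h compound exposure (10 concentrations, threefold steps) of HT-29 cells. IC50 from duplicate dose-responses uses CellTiter-Glo ATP luminescence as viability read-out.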

| SMILES | IC50 [µM] |
| --- | --- |
| CCOC(=O)c1c(C)nc(Oc2ccc(-n3ncn(Cc4c(F)cccc4F)c3=O)cc2F)n1C [Example 182, ethyl 2-(4-(4-(2,6-difluorobenzyl)-5-oxo-4,5-dihydro-1H-1,2,4-triazol-1-yl)-2-fluorophenoxy)-1,4-dimethyl-1H-imidazole-5-carboxylate] | 0.1 to 1 |
| CCOC1CN(c2nc(C)c(Oc3ccc(-n4ncn(Cc5c(F)cccc5F)c4=O)cc3)n2C)C1 [Example 183, 4-(2,6-difluorobenzyl)-2-(4-((2-(3-ethoxyazetidin-1-yl)-1,4-dimethyl-1H-imidazol-5-yl)oxy)phenyl)-2,4-dihydro-3H-1,2,4-triazol-3-one] | < 0.1 |
| Cc1nn(Cc2ccc(-n3ncn(Cc4c(F)cccc4F)c3=O)cc2)cc1Br [Example 184, 2-(4-((4-bromo-3-methyl-1H-pyrazol-1-yl)methyl)phenyl)-4-(2,6-difluorobenzyl)-2,4-dihydro-3H-1,2,4-triazol-3-one] | < 0.1 |
| Cc1ncc(C#N)n1Cc1ccc(-n2ncn(Cc3c(F)cccc3F)c2=O)cc1 [Example 185, 1-(4-(4-(2,6-difluorobenzyl)-5-oxo-4,5-dihydro-1H-1,2,4-triazol-1-yl)benzyl)-2-methyl-1H-imidazole-5-carbonitrile] | 0.1 to 1 |
| Cc1nc(C#N)cn1Cc1ccc(-n2ncn(Cc3c(F)cccc3F)c2=O)cc1 [Example 186, 1-(4-(4-(2,6-difluorobenzyl)-5-oxo-4,5-dihydro-1H-1,2,4-triazol-1-yl)benzyl)-2-methyl-1H-imidazole-4-carbonitrile] | < 0.1 |
| Cc1nccn1Cc1ccc(-n2ncn(Cc3c(F)cccc3F)c2=O)cc1 [Example 187, 4-(2,6-difluorobenzyl)-2-(4-((2-methyl-1H-imidazol-1-yl)methyl)phenyl)-2,4-dihydro-3H-1,2,4-triazol-3-one] | 0.1 to 1 |
| Cc1cc(C)n(Cc2ccc(-n3ncn(Cc4c(F)cccc4F)c3=O)cc2)c1 [Example 188, 4-(2,6-difluorobenzyl)-2-(4-((2,4-dimethyl-1H-pyrrol-1-yl)methyl)phenyl)-2,4-dihydro-3H-1,2,4-triazol-3-one] | 0.1 to 1 |
| Cc1nn(Cc2ccc(-n3ncn(Cc4c(F)cccc4F)c3=O)cc2)c(C)c1C [Example 189, 4-(2,6-difluorobenzyl)-2-(4-((3,4,5-trimethyl-1H-pyrazol-1-yl)methyl)phenyl)-2,4-dihydro-3H-1,2,4-triazol-3-one] | < 0.1 |
| Cc1nn(Cc2ccc(-n3ncn(Cc4c(F)cccc4F)c3=O)cc2)cc1C#N [Example 190, 1-(4-(4-(2,6-difluorobenzyl)-5-oxo-4,5-dihydro-1H-1,2,4-triazol-1-yl)benzyl)-3-methyl-1H-pyrazole-4-carbonitrile] | < 0.1 |
| Cc1c(C#N)cnn1Cc1ccc(-n2ncn(Cc3c(F)cccc3F)c2=O)cc1 [Example 191, 1-(4-(4-(2,6-difluorobenzyl)-5-oxo-4,5-dihydro-1H-1,2,4-triazol-1-yl)benzyl)-5-methyl-1H-pyrazole-4-carbonitrile] | < 0.1 |
| Cc1ccn(Cc2ccc(-n3ncn(Cc4c(F)cccc4F)c3=O)cc2)n1 [Example 192, 4-(2,6-difluorobenzyl)-2-(4-((3-methyl-1H-pyrazol-1-yl)methyl)phenyl)-2,4-dihydro-3H-1,2,4-triazol-3-one] | < 0.1 |
| Cc1nn(Cc2ccc(-n3ncn(Cc4c(F)cccc4F)c3=O)cc2)c(C)c1N [Example 193, 2-(4-((4-amino-3,5-dimethyl-1H-pyrazol-1-yl)methyl)phenyl)-4-(2,6-difluorobenzyl)-2,4-dihydro-3H-1,2,4-triazol-3-one] | 1 to 10 |
| N#Cc1cccn(Cc2ccc(-n3ncn(Cc4c(F)cccc4F)c3=O)cc2)c1=O [Example 194, 1-(4-(4-(2,6-difluorobenzyl)-5-oxo-4,5-dihydro-1H-1,2,4-triazol-1-yl)benzyl)-2-oxo-1,2-dihydropyridine-3-carbonitrile] | 1 to 10 |
| N#Cc1ccc(=O)n(Cc2ccc(-n3ncn(Cc4c(F)cccc4F)c3=O)cc2)c1 [Example 195, 1-(4-(4-(2,6-difluorobenzyl)-5-oxo-4,5-dihydro-1H-1,2,4-triazol-1-yl)benzyl)-6-oxo-1,6-dihydropyridine-3-carbonitrile] | 0.1 to 1 |
| CCOC(=O)c1ncn(Cc2ccc(-n3ncn(Cc4c(F)cccc4F)c3=O)cc2F)c1C [Example 196, ethyl 1-(4-(4-(2,6-difluorobenzyl)-5-oxo-4,5-dihydro-1H-1,2,4-triazol-1-yl)-2-fluorobenzyl)-5-methyl-1H-imidazole-4-carboxylate] | < 0.1 |
| CCOC(=O)c1cc(C)nn1Cc1ccc(-n2ncn(Cc3c(F)cccc3F)c2=O)cc1F [Example 197, ethyl 1-(4-(4-(2,6-difluorobenzyl)-5-oxo-4,5-dihydro-1H-1,2,4-triazol-1-yl)-2-fluorobenzyl)-3-methyl-1H-pyrazole-5-carboxylate] | < 0.1 |
| CCOC(=O)c1cc(C)n(Cc2ccc(-n3ncn(Cc4c(F)cccc4F)c3=O)cc2F)n1 [Example 198, ethyl 1-(4-(4-(2,6-difluorobenzyl)-5-oxo-4,5-dihydro-1H-1,2,4-triazol-1-yl)-2-fluorobenzyl)-5-methyl-1H-pyrazole-3-carboxylate] | 0.1 to 1 |

| SMILES | IC50 [µM] |
| --- | --- |
| CCOC(=O)c1nc(C)nn1Cc1ccc(-n2ncn(Cc3c(F)cccc3F)c2=O)cc1F [Example 201] | 0.1 to 1 |
| CCOC(=O)c1nn(Cc2ccc(-n3ncn(Cc4c(F)cccc4F)c3=O)cc2F)c(C)c1C [Example 202, ethyl 1-(4-(4-(2,6-difluorobenzyl)-5-oxo-4,5-dihydro-1H-1,2,4-triazol-1-yl)-2-fluorobenzyl)-4,5-dimethyl-1H-pyrazole-3-carboxylate] | < 0.1 |
| CCOC(=O)c1c(C)c(C)nn1Cc1ccc(-n2ncn(Cc3c(F)cccc3F)c2=O)cc1F [Example 203, ethyl 1-(4-(4-(2,6-difluorobenzyl)-5-oxo-4,5-dihydro-1H-1,2,4-triazol-1-yl)-2-fluorobenzyl)-3,4-dimethyl-1H-pyrazole-5-carboxylate] | 0.1 to 1 |
| CCOC(=O)c1cc(C)n(Cc2ccc(-n3ncn(Cc4c(F)cccc4F)c3=O)cc2F)c1 [Example 204, ethyl 1-(4-(4-(2,6-difluorobenzyl)-5-oxo-4,5-dihydro-1H-1,2,4-triazol-1-yl)-2-fluorobenzyl)-5-methyl-1H-pyrrole-3-carboxylate] | < 0.1 |
| COC(=O)c1cc(C)n(Cc2ccc(-n3ncn(Cc4c(F)cccc4F)c3=O)cc2F)c1C [Example 205, methyl 1-(4-(4-(2,6-difluorobenzyl)-5-oxo-4,5-dihydro-1H-1,2,4-triazol-1-yl)-2-fluorobenzyl)-2,5-dimethyl-1H-pyrrole-3-carboxylate] | < 0.1 |
| Cc1ccc(C#N)n1Cc1ccc(-n2ncn(Cc3c(F)cccc3F)c2=O)cc1 [Example 206, 1-(4-(4-(2,6-difluorobenzyl)-5-oxo-4,5-dihydro-1H-1,2,4-triazol-1-yl)benzyl)-5-methyl-1H-pyrrole-2-carbonitrile] | 0.1 to 1 |
| Cc1ccc(C)n1Cc1ccc(-n2ncn(Cc3c(F)cccc3F)c2=O)cc1 [Example 207, 4-(2,6-difluorobenzyl)-2-(4-((2,5-dimethyl-1H-pyrrol-1-yl)methyl)phenyl)-2,4-dihydro-3H-1,2,4-triazol-3-one] | < 0.1 |
| CCOC(=O)c1c(C)cn(Cc2ccc(-n3ncn(Cc4c(F)cccc4F)c3=O)cc2F)c1C [Example 208, 1-(4-(4-(2,6-difluorobenzyl)-5-oxo-4,5-dihydro-1H-1,2,4-triazol-1-yl)-2-fluorobenzyl)-2,4-dimethyl-1H-pyrrole-3-carboxylate] | < 0.1 |
| N#Cc1ccn(Cc2ccc(-n3ncn(Cc4c(F)cccc4F)c3=O)cc2)n1 [Example 209, 1-(4-(4-(2,6-difluorobenzyl)-5-oxo-4,5-dihydro-1H-1,2,4-triazol-1-yl)benzyl)-1H-pyrazole-3-carbonitrile] | < 0.1 |
| COC(=O)c1cn(Cc2ccc(-n3ncn(Cc4c(F)cccc4F)c3=O)cc2F)c(C)n1 [Example 210, methyl 1-(4-(4-(2,6-difluorobenzyl)-5-oxo-4,5-dihydro-1H-1,2,4-triazol-1-yl)-2-fluorobenzyl)-2-methyl-1H-imidazole-4-carboxylate] | 0.1 to 1 |
| O=c1c(Br)cccn1Cc1ccc(-n2ncn(Cc3c(F)cccc3F)c2=O)cc1 [Example 211, 3-bromo-1-(4-(4-(2,6-difluorobenzyl)-5-oxo-4,5-dihydro-1H-1,2,4-triazol-1-yl)benzyl)pyridin-2(1H)-one] | 0.1 to 1 |
| Cc1nc(CN2CCCC2)sc1Oc1ccc(-n2ncn(Cc3c(F)cccc3F)c2=O)cc1F [Example 212, 4-(2,6-difluorobenzyl)-2-(3-fluoro-4-((4-methyl-2-(pyrrolidin-1-ylmethyl)thiazol-5-yl)oxy)phenyl)-2,4-dihydro-3H-1,2,4-triazol-3-one] | < 0.1 |
| Cc1cn(Cc2ccc(-n3nc4n(c3=O)C(c3ccccc3)CC4)cc2F)c(C)n1 (stereo not drawn) [Example 213, 2-(4-((2,4-dimethyl-1H-imidazol-1-yl)methyl)-3-fluorophenyl)-5-phenyl-2,5,6,7-tetrahydro-3H-pyrrolo[2,1-c][1,2,4]triazol-3-one] | < 0.1 |
| Cc1cn(C)c(=O)n1Cc1ccc(-n2ncn(Cc3c(F)cccc3F)c2=O)cc1 [Example 214, 4-(2,6-difluorobenzyl)-2-(4-((3,5-dimethyl-2-oxo-2,3-dihydro-1H-imidazol-1-yl)methyl)phenyl)-2,4-dihydro-3H-1,2,4-triazol-3-one] | 1 to 10 |
| CCOC(=O)c1nc(C)n(Cc2ccc(-n3ncn(Cc4c(F)cccc4F)c3=O)cc2F)c1C [Example 215, ethyl 1-(4-(4-(2,6-difluorobenzyl)-5-oxo-4,5-dihydro-1H-1,2,4-triazol-1-yl)-2-fluorobenzyl)-2,5-dimethyl-1H-imidazole-4-carboxylate] | < 0.1 |
| Cc1cc(C(=O)O)nn1Cc1ccc(-n2ncn(Cc3c(F)cccc3F)c2=O)cc1F [Example 216, 1-(4-(4-(2,6-difluorobenzyl)-5-oxo-4,5-dihydro-1H-1,2,4-triazol-1-yl)-2-fluorobenzyl)-5-methyl-1H-pyrazole-3-carboxylic acid] | 1 to 10 |
